Results reported in PMC6701825, “Antiproliferative and Antimigratory Effects of a Novel YAP–TEAD Interaction Inhibitor Identified Using in Silico Molecular Docking” (Journal of Medicinal Chemistry, 2019).

Assays:
HeLa cells = assay: Live/dead cell viability assay (ethidium homodimer-1) in HeLa cells; type: cell-based; settings: 6 hours
Method: Cell viability was quantified using the live/dead viability/cytotoxicity assay standard protocol (Invitrogen). Maximum cell death was quantified by incubating cells for 10 min with 0.1% Triton-X, followed by incubation with 0.4 μM ethidium homodimer-1 for an additional 10 min. Fluorescence was measured using a GloMax Discover multiplate reader (Promega).
Supplement Figure 3: Effect of shortlisted compounds on cell viability
HeLa cells transduced with TEAD-NLUC reporter were treated with indicated compounds at 100 µM for 6 hours (n=3). Cell viability was quantified by staining with 0.4 µM ethidium homodimer-1 and ethidium homodimer-1 uptake quantified by measuring fluorescence at 645 nm using a Glomax Discover plate reader.
(1 picture or pasted object on this page, not shown here)
Supplement Figure 6: Effect of CPD3, CPD3.1, CPD3.2 and CPD 3.3 on cell viability HeLa cells transduced with TEAD-NLUC reporter were treated with indicated concentrations of CPD3, CPD3.1, CPD3.2 and CPD 3.3 for 6 hours (n=3). Cell viability was quantified by staining with 0.4 µM ethidium homodimer-1 and ethidium homodimer-1 uptake quantified by measuring fluorescence at 645 nm using a Glomax Discover plate

[1] = tested on: TEAD-dependent transcriptional activity; assay: 8xTEAD secreted nanoluciferase (TEAD-NLUC) reporter assay in HeLa cells; type: cell-based, human; settings: HeLa, indicated concentrations, 6 h
Excerpt: The shortlisted sets of 16 compounds were first assayed for their ability to inhibit TEAD-dependent transcriptional activity in HeLa cells that had been transduced with a recombinant lentiviral vector expressing secreted bioluminescent nanoluciferase (NLUC) reporter gene enzyme, which is expressed under the control of a promoter region containing eight TEAD DNA-binding elements (TEAD-NLUC).
Compounds were initially screened for ability to inhibit TEAD-dependent transcriptional activity in HeLa cells transduced with a lentiviral vector expressing secreted nanoluciferase under the control of multimerized TEAD consensus elements (5′-[…]-3′). 8xTEAD NanoLuc was generated by cloning the 8xTEAD promoter from the 8xTEAD-Luc plasmid (Addgene #34615) into the pENTR gateway entry vector (Promega). This was then recombined into pLNT-sec-Nluc-2A-eGFP destination vector (supplied by Tristan McKay; University of Manchester). Lentiviruses were generated by Viafect-mediated co-transfection of pLNT8x-TEAD-sec-Nluc-2A-eGFP, Δ8.9, and VSV-G vectors into HEK293T cells (ATCC), and lentiviral-containing culture supernatants were used to infect HeLa cells in the presence of 6 μg/mL polybrene. For compound screening, 8xTEAD NanoLuc-transduced HeLa cells were seeded at 2 × 10^4 cells/well in 96-well plates. After 48 h, the cells were washed in PBS and incubated with test compounds at the indicated concentrations for 2 h. The cells were washed again in PBS and incubated with the compound for a further 4 h. Conditioned culture medium (50 μL) was assayed for secreted nanoluciferase activity using NanoGlo activity assays kit (Promega) and a Glomax Discover luminometer.

[2] = indicated concentrations, HeLa (Supplement Figure 6)

Row | Structure (SMILES) | effect on cell viability (HeLa cells; 100 µM, HeLa TEAD-NLUC cells) | effect on TEAD-NLUC activity [1] | effect on cell viability (HeLa cells; [2])
1 | O=C(NCCn1ncc2c(N3CCN(c4ncccn4)CC3)ncnc21)C12CC3CC(CC(C3)C1)C2 [CPD8] | without significantly affecting cell viability | – | –
2 | OCC(O)CN1CCNCC1 (centres unmarked) [CPD3.2] | – | Neither CPD3.2 nor CPD3.3 had any effect | Neither CPD3.2 nor CPD3.3 had any effect
3 | O=C(O)c1ccco1 [CPD3.3] | – | Neither CPD3.2 nor CPD3.3 had any effect | Neither CPD3.2 nor CPD3.3 had any effect
